Laboratory results taken from patent US8524902B2, “[1,2,4]triazolo[4,3-f]pteridines useful as inhibitors of protein kinases” (Vertex Pharmaceuticals Incorporated, priority 2006, dated 2013).

target: T1, Plk1 (Homo sapiens, UniProt P53350); assay: Plk1 inhibition assay (radioactive-phosphate incorporation); assay type: biochemical; settings: Ki(app) from [γ-33P]ATP incorporation, 25° C.
T1 construct: in the presence of 15 nM Plk1 (A20-K338)
Protocol: Compounds of the present invention may be evaluated as inhibitors of human PLK kinase using the following assays.
Compounds were screened for their ability to inhibit Plk1 using a radioactive-phosphate incorporation assay. Assays were carried out in a mixture of 25 mM HEPES (pH 7.5), 10 mM MgCl2, and 1 mM DTT. Final substrate concentrations were 50 μM [γ-33P]ATP (136 mCi 33P ATP/mmol ATP, Amersham Pharmacia Biotech/Sigma Chemicals) and 10 μM peptide (SAM68 protein Δ332-443). Assays were carried out at 25° C. in the presence of 15 nM Plk1 (A20-K338). An assay stock buffer solution was prepared containing all of the reagents listed above, with the exception of ATP and the test compound of interest. 30 μL of the stock solution was placed in a 96 well plate followed by addition of 2 μL of DMSO stock containing serial dilutions of the test compound (typically starting from a final concentration of 10 μM with 2-fold serial dilutions) in duplicate (final DMSO concentration 5%). The plate was pre-incubated for 10 minutes at 25° C. and the reaction initiated by addition of 8 μL [γ33P]ATP (final concentration 50 μM).
The reaction was stopped after 60 minutes by the addition of 100 μL 0.14M phosphoric acid. A multiscreen phosphocellulose filter 96-well plate (Millipore, Cat no. MAPHN0B50) was pretreated with 100 μL 0.2M phosphoric acid prior to the addition of 125 μL of the stopped assay mixture. The plate was washed with 4×200 μL 0.2M phosphoric acid. After drying, 100 μL Optiphase ‘SuperMix’ liquid scintillation cocktail (Perkin Elmer) was added to the well prior to scintillation counting (1450 Microbeta Liquid Scintillation Counter, Wallac).
After removing mean background values for all of the data points, Ki(app) data were calculated from non-linear regression analysis of the initial rate data using the Prism software package (GraphPad Prism version 3.0cx for Macintosh, GraphPad Software, San Diego Calif., USA).
Compounds were screened for their ability to inhibit Plk1 using a radioactive-phosphate incorporation assay. Assays were carried out in a mixture of 25 mM HEPES (pH 7.5), 10 mM MgCl2, 0.1% BSA, and 2 mM DTT. Final substrate concentrations were 150 μM (350 μM for determining values of <1 nM) [γ-33P]ATP (115 mCi 33P ATP/mmol ATP, Amersham Pharmacia Biotech/Sigma Chemicals) and 300 μM (450 μM for determining values of <1 nM) peptide (KKKISDELMDATFADQEAK) SEQ. ID NO. 1. Assays were carried out at 25° C. in the presence of 4 nM (1 nM for determining values of <1 nM) Plk1. An assay stock buffer solution was prepared containing all of the reagents listed above, with the exception of ATP and the test compound of interest. 30 μL of the stock solution was placed in a 96 well plate followed by addition of 2 μL of DMSO stock containing serial dilutions of the test compound (typically starting from a final concentration of 10 μM with 2-fold serial dilutions) in duplicate (final DMSO concentration 5%). The plate was pre-incubated for 10 minutes at 25° C. and the reaction initiated by addition of 8 μl [γ-33P]ATP (final concentration 150 μM (350 μM for determining values of <1 nM))).
The reaction was stopped after 90 minutes (240 minutes for determining values of <1 nM) by the addition of 100 μL 0.14M phosphoric acid. A multiscreen phosphocellulose filter 96-well plate (Millipore, Cat no. MAPHN0B50) was pretreated with 100 μL 0.2M phosphoric acid prior to the addition of 125 μL of the stopped assay mixture. The plate was washed with 4×200 μL 0.2M phosphoric acid. After drying, 100 μL Optiphase ‘SuperMix’ liquid scintillation cocktail (Perkin Elmer) was added to the well prior to scintillation counting (1450 Microbeta Liquid Scintillation Counter, Wallac).

T1 sequence (P53350 20-338): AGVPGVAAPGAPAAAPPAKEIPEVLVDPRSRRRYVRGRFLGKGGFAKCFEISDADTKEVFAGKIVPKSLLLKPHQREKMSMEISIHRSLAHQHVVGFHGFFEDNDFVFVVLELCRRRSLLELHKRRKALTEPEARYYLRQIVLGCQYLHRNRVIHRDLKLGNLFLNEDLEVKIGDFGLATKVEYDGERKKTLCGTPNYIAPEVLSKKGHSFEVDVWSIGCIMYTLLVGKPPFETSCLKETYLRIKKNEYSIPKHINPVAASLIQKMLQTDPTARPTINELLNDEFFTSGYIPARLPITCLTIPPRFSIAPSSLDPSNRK

Ki, < 10 nM:
CC[C@@H]1c2nncn2-c2cnc(Nc3ccc(C(=O)NC)cc3OC)nc2N1C1CCCC1 [Compound I-1, 4-((R)-5-cyclopentyl-4-ethyl-4,5-dihydro-[1,2,4]triazolo[4,3-f]pteridin-7-ylamino)-3-methoxy-N-methylbenzamide]
CC[C@@H]1c2nncn2-c2cnc(Nc3ccc(C(=O)NC4CCN(C)CC4)cc3OC)nc2N1C1CCCC1 [Compound I-2, 4-((R)-5-cyclopentyl-4-ethyl-4,5-dihydro-[1,2,4]triazolo[4,3-f]pteridin-7-ylamino)-3-methoxy-N-(1-methylpiperidin-4-yl)benzamide]
CC[C@@H]1c2nncn2-c2cnc(Nc3ccc(C(=O)NC)cc3Cl)nc2N1C1CCCC1 [Compound I-4, 4-((R)-5-cyclopentyl-4-ethyl-4,5-dihydro-[1,2,4]triazolo[4,3]pteridin-7-ylamino)-3-chloro-N-methylbenzamide]
CC[C@@H]1c2nncn2-c2cnc(Nc3ccc(C(=O)N(C)C)cc3C)nc2N1C1CCCC1 [Compound I-5, 4-((R)-5-cyclopentyl-4-ethyl-4,5-dihydro-[1,2,4]triazolo[4,3]pteridin-7-ylamino)-N,N,3-trimethylbenzamide]
CC[C@@H]1c2nncn2-c2cnc(Nc3ccc(C(=O)NC)cc3C)nc2N1C1CCCC1 [Compound I-6, 4-((R)-5-cyclopentyl-4-ethyl-4,5-dihydro-[1,2,4]triazolo[4,3]pteridin-7-ylamino)-N,3-dimethylbenzamide]
CC[C@@H]1c2nccn2-c2cnc(Nc3ccc(C(=O)NC)cc3OC)nc2N1C1CCCC1 [Compound I-7, 4-((R)-5-cyclopentyl-6-ethyl-5,6-dihydroimidazo[1,2)pteridin-3-ylamino)-3-methoxy-N-methylbenzamide]
CC[C@@H]1c2nncn2-c2cnc(Nc3ccc(C(=O)NC4CC4)cc3OC)nc2N1C1CCCC1 [Compound I-8, (R)-4-(5-cyclopentyl-4-ethyl-4,5-dihydro-[1,2,4]triazolo[4,3-f]pteridin-7-ylamino)-N-cyclopropyl-3-methoxybenzamide]
CC[C@@H]1c2nncn2-c2cnc(Nc3ccc(C(=O)N[C@@H]4CCOC4)cc3OC)nc2N1C1CCCC1 [Compound I-9, 4-((R)-5-cyclopentyl-4-ethyl-4,5-dihydro-[1,2,4]triazolo[4,3-f]pteridin-7-ylamino)-3-methoxy-N—((R)-tetrahydrofuran-3-yl)benzamide]
CC[C@@H]1c2nncn2-c2cnc(Nc3ccc(C(=O)NC4CCCC4)cc3OC)nc2N1C1CCCC1 [Compound I-10, (R)—N-cyclopentyl-4-(5-cyclopentyl-4-ethyl-4,5-dihydro-[1,2,4]triazolo[4,3-f]pteridin-7-ylamino)-3-methoxybenzamide]
CC[C@@H]1c2nncn2-c2cnc(Nc3ccc(C(=O)NC4CC4)cc3)nc2N1C1CCCC1 [Compound I-11, (R)-4-(5-cyclopentyl-4-ethyl-4,5-dihydro-[1,2,4]triazolo[4,3-f]pteridin-7-ylamino)-N-cyclopropylbenzamide]
CC[C@@H]1c2nncn2-c2cnc(Nc3ccc(C(=O)N4CC[C@H](F)C4)cc3OC)nc2N1C1CCCC1 [Compound I-12, (4-((R)-5-cyclopentyl-4-ethyl-4,5-dihydro-[1,2,4]triazolo[4,3-f]pteridin-7-ylamino)-3-methoxyphenyl)((S)-3-fluoropyrrolidin-1-yl)methanone]
CC[C@@H]1c2nnc(C)n2-c2cnc(Nc3ccc(C(=O)NC4CC4)cc3OC)nc2N1C1CCCC1 [Compound I-13, (R)-4-(5-cyclopentyl-4-ethyl-1-methyl-4,5-dihydro-[1,2,4]triazolo[4,3-f]pteridin-7-ylamino)-N-cyclopropyl-3-methoxybenzamide]
CC[C@@H]1c2nncn2-c2cnc(Nc3ccc(C(=O)NC4CC4)cc3F)nc2N1C1CCCC1 [Compound I-14, (R)-4-(5-cyclopentyl-4-ethyl-4,5-dihydro-[1,2,4]triazolo[4,3-f]pteridin-7-ylamino)-N-cyclopropyl-3-fluorobenzamide]
CC[C@@H]1c2nncn2-c2cnc(Nc3ccc(C(=O)NC4CC4)s3)nc2N1C1CCCC1 [Compound I-15, (R)-5-(5-cyclopentyl-4-ethyl-4,5-dihydro-[1,2,4]triazolo[4,3-f]pteridin-7-ylamino)-N-cyclopropylthiophene-2-carboxamide]
CC[C@@H]1c2nncn2-c2cnc(Nc3ccc(C(=O)NC)cc3F)nc2N1C1CCCC1 [Compound I-16, (R)-4-(5-cyclopentyl-4-ethyl-4,5-dihydro-[1,2,4]triazolo[4,3-f]pteridin-7-ylamino)-3-fluoro-N-methylbenzamide]
CC[C@@H]1c2nncn2-c2cnc(Nc3ccc(C(=O)NC4CC(F)(F)C4)cc3OC)nc2N1C1CCCC1 [Compound I-17, (R)-4-(5-cyclopentyl-4-ethyl-4,5-dihydro-[1,2,4]triazolo[4,3-f]pteridin-7-ylamino)-N-(3,3-difluorocyclobutyl)-3-methoxybenzamide]
CCNC(=O)c1ccc(Nc2ncc3c(n2)N(C2CCCC2)[C@H](CC)c2nncn2-3)c(OC)c1 [Compound I-18, (R)-4-(5-cyclopentyl-4-ethyl-4,5-dihydro-[1,2,4]triazolo[4,3-f]pteridin-7-ylamino)-N-ethyl-3-methoxybenzamide]
CCNC(=O)c1ccc(Nc2ncc3c(n2)N(C2CCCC2)[C@H](CC)c2nncn2-3)c(F)c1 [Compound I-19, (R)-4-(5-cyclopentyl-4-ethyl-4,5-dihydro-[1,2,4]triazolo[4,3-f]pteridin-7-ylamino)-N-ethyl-3-fluorobenzamide]
CC[C@@H]1c2nncn2-c2cnc(Nc3ccc(C(F)(F)F)cc3F)nc2N1C1CCCC1 [Compound I-20, (R)-5-cyclopentyl-4-ethyl-N-(2-fluoro-4-(trifluoromethyl)phenyl)-4,5-dihydro-[1,2,4]triazolo[4,3-f]pteridin-7-amine]
CC[C@@H]1c2nncn2-c2cnc(Nc3ccc(C(=O)NC)cc3C(F)(F)F)nc2N1C1CCCC1 [Compound I-21, (R)-4-(5-cyclopentyl-4-ethyl-4,5-dihydro-[1,2,4]triazolo[4,3-f]pteridin-7-ylamino)-N-methyl-3-(trifluoromethyl)benzamide]
CC[C@@H]1c2nncn2-c2cnc(Nc3ccccc3)nc2N1C1CCCC1 [Compound I-22, (R)-5-cyclopentyl-4-ethyl-N-phenyl-4,5-dihydro-[1,2,4]triazolo[4,3-f]pteridin-7-amine]
CC[C@@H]1c2nncn2-c2cnc(Nc3ccncc3)nc2N1C1CCCC1 [Compound I-23, (R)-5-cyclopentyl-4-ethyl-N-(pyridin-4-yl)-4,5-dihydro-[1,2,4]triazolo[4,3-f]pteridin-7-amine]
CC[C@@H]1c2nncn2-c2cnc(Nc3ccc(C(=O)NC)cc3C(F)F)nc2N1C1CCCC1 [Compound I-24, (R)-4-(5-cyclopentyl-4-ethyl-4,5-dihydro-[1,2,4]triazolo[4,3-f]pteridin-7-ylamino)-3-(difluoromethyl)-N-methylbenzamide]
